Laboratory results reported in paper PMC8845285, “Serotoninergic receptor ligands improve Tamoxifen effectiveness on breast cancer cells” (BMC Cancer, 2022).

Assays:
Assay type in all cases: cell-based, human
ABCC1, ABCG1 and ABCG2 = assay: ABC transporter mRNA levels in MCF7-R cells, qPCR; details: Tamoxifen 5 μM, E2 100 nM, 72 h
Method: Total RNA was isolated from cells, quantified (NanoDrop spectrophotometer, Life Technologies, Carlsbad, CA, USA) and reverse transcribed according to the manufacturer’s instructions. Semiquantitative PCR and qPCR assays were performed according to manufacturer’s instructions for Bio-Rad T100 thermal cycler and CFX Connect Real Time system (Biorad, Hercules, CA, USA), respectively. Relative gene expression quantification was measured by 2^−ΔΔCt method normalizing for the reference sample using Rps23 (Ribosomal Protein S23) as housekeeping gene.
Cell viability was measured
(§1) (1 picture or pasted object on this page, not shown here)

MCF7-R cells = assay: Tamoxifen-resistant MCF7-R cell viability, sulforhodamine B assay; details: up to 6 μM, E2 100 nM, 72 h
Method: (§2) Cells were fixed with 50% trichloroacetic acid for at least 2 h at 4 °C, washed with distilled and de-ionized water, air-dryed and stained 30 min with 0.4% sulforhodamine B in 1% acetic acid. Unbound dye was removed and 10 mM tris-HCl solution (pH 7.5) was added to dissolve the protein-bound dye. Cell survival was assessed by optical density determination at 510 nm using a microplate reader.
MCF7 cells were cultured for 4 months in phenol-red free medium supplemented with 10% (C/S) FBS and continuously exposed to Tamoxifen (1 μM). […] To further validate the degree of drug resistance, the expression levels of ABCC1, ABCG1 and ABCG2 – members of ABC transporter family known as involved in multi-drug resistance – were evaluated by Quantitative Real-Time PCR (qPCR; see below) upon cell treatment with 5 μM Tamoxifen for 72 h.
Fig. 9 Effect of SER79 and SER68 on Tamoxifen-resistant (MCF7-R) cells. a Estrogen starved MCF7-R were treated with SER79 (20 μM, 5 μM) or SER68 (20 μM) in presence of E2 (100 nM). b Estrogen-starved MCF7-R were treated with Tamoxifen (5 μM) in presence of E2 and SER79 (20 μM) or SER68 (20 μM). a,b As positive control, the cells were treated with E2 alone, in absence or in presence of SER (dotted line). After 72 h, cell viability was assessed by sulforhodamine B assay (see Methods). The results were reported as percentage of viable cells compared to positive control, considered as maximum viability (100%). c mRNA levels of CTGF were determined by qPCR (see Methods and Table 1) in MCF7-R cells upon treatment with SER68 (20 μM). Data were normalized on Ribosomal Protein S23 (Rps23) gene as internal standard and reported as CTGF mRNA levels in MCF7-R. a-c Graphs represent the mean ± SD of at least three independent triplicate experiments. * denotes statistically significant values compared with (b) positive control or (c) MCF7 cells (*adjp<0.05; **adjp<0.001). # denotes statistically significant values compared with untreated MCF7-R (#pval<0.05) […]
Figure S3. Establishment of MCF7 Tamoxifen re sista n t(M C F7-R) cells. MCF7 cells were cultured with Tamoxifen (1µM), in absence of E2, for 4 months (M C F7-R). (a-b) MCF7 and MCF7-R cells were treated with in c re a s in gconcentration of Tamoxifen […]
As positive control, cells were treated with E2 alone. Cell viability was measured by sulforhodamine B assay (se e Methods). The re su ltswere re p o rte das percentage of viable cells compared to untreated cells, considered as maximum viability (100%). […]
(a ) * denotes statistically significant values compared with untreated cells […]
as §1

[1] = tested on: Tamoxifen-cultured MCF7 cells; assay: Tamoxifen-cultured MCF7 cell viability, sulforhodamine B assay; details: Tamoxifen 5 μM, E2 100 nM, 72 h
Method: as §2
To further investigate the effect of SER79 and SER68 on Tamoxifen responsiveness and CTGF expression in MCF7 cells, we obtained - by a continuous treatment of 10 days with 1 μM Tamoxifen – a cellular model less sensitive to the drug (Tamoxifen-cultured MCF7). We observed that 20 μM SER79, 20 μM and 40 μM SER68, while not 5 μM SER79, reduced viability of Tamoxifen-cultured MCF7 cells by about 40% (adjp<0.01; Fig. 8a). […] However, in the presence of 20 μM SER79, 20 μM and 40 μM SER68, Tamoxifen elicited a further 40% reduction of viability, similar to that achieved in Tamoxifen-responsive MCF7 cells (adjp<0.01; Fig. 8b).
Fig. 8 Effect of SER79 and SER68 on Tamoxifen-cultured MCF7 cells. MCF7 cells were cultured in presence of Tamoxifen (1 μM) for 10 days. Estrogen-starved MCF7 and Tamoxifen-cultured MCF7 cells (48 h) were (a-c) treated with SER79 (20 μM, 5 μM) or SER68 (40 μ, 20 μM), (b) treated with Tamoxifen (5 μM) in presence of SER79 (20 μM, 5 μM) or SER68 (40 μM, 20 μM). All treatments were carried out in presence of E2 (100 nM) for 72 h. As positive control, the cells were treated with (a-c) E2 alone or (b) E2 in absence or in presence of SER (as indicated, dotted line). a,b Cell viability was assessed by sulforhodamine B assay (see Methods). The results were reported as percentage of viable cells compared to positive control, considered as maximum viability (100%). c mRNA levels of CTGF were determined by qPCR (see Methods and Table 1). Data were normalized on Ribosomal Protein S23 (Rps23) gene as internal standard and reported as CTGF mRNA levels in Tamoxifen-cultured MCF7 relative to those in MCF7 cells (dotted line). a-c Graphs represent the mean ± SD of at least three independent triplicate experiments. * denotes statistically significant values compared with (a,b) positive control (*adjp<0.05, ** adjp<0.01) or (c) MCF7 cells (*pval<0.05); # denotes statistically significant values compared with (b) cells treated with Tamoxifen in absence of SER or (c) untreated Tamoxifen-cultured MCF7 cells (#pval<0.01, ##pval<0.0001)

`CC/C(=C(\c1ccccc1)c1ccc(OCCN(C)C)cc1)c1ccccc1` [Tamoxifen] was tested, and the “mRNA levels of ABCC1, ABCG1 and ABCG2 in Tamoxifen-treated MCF7-R cells” value (ABCC1, ABCG1 and ABCG2) was “higher”, the “effect of Tamoxifen on MCF7-R cell viability” value (MCF7-R cells) was “did not reduce” and the “effect of Tamoxifen treatment alone on viability of Tamoxifen-cultured MCF7 cells” value [1] was “did not affect viability”.
